For 86 molecules, EC50 results are on record in PubChem BioAssay AID2765 (Broad Institute, 2010).

Calls of active or inactive are those of the source.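 Rule for the calls: active = half-maximal concentration for the rise in caspase light signal at or below ten times the top tested dose; inconclusive = flat fit between 30% and 70% activity, or unreliable curve fit; inactive = the rest.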

For the assay, the system named is MEF A1-2A-BIM cells, caspase 3/7 luminescence, 3 h. Put plainly: caspase activation in A1-2A-BIM MEF cells, dose response, A1 inhibitor project, cell-based, luminescence, retest (AID 2765).

In the case of `CC1CCN(CCCNC(=O)c2cn(C)c3ccc(S(=O)(=O)N4CCCC4)cc3c2=O)CC1`, the EC50 was > 35 µM (inactive). The figure for `CCOC(=O)/C(=C\c1ccc([N+](=O)[O-])cc1)C(=O)c1cc(C(C)=O)c(Nc2ccccc2)s1` is 1.9 µM; for `COc1ccc(N2C(=O)CCC(C(=O)O)C2c2ccc(OC)c(OC)c2)cc1` (stereo unspecified) it is > 35 µM (inactive). The figure for `CCN(CC)C1CCN(C(=O)c2ccc(OC3CCN(CCc4ccccc4)CC3)cc2)C1` (stereo unspecified) is > 35 µM (inactive); for `C[C@H](NC(=O)OC(C)(C)C)C(=O)NCC1CCC(C(=O)N[C@@H](Cc2ccccc2)C(=O)O)CC1` (stereo partly specified) it is > 35 µM (inactive); for `O=C1NC(=O)C(c2cn(-c3ccccc3)nc2-c2ccc(F)cc2)N1` (stereo unspecified) it is > 35 µM (inactive).

With `COc1ccccc1C(=O)NC(=O)COC(=O)CCS(=O)(=O)c1ccc(C)cc1`, the EC50 was > 35 µM (inactive). Turning to `COc1ccc(OC)c(/C=C/C(=O)N(C)CC(=O)Nc2cc(C)ccc2C)c1`, the EC50 was > 35 µM (inactive). For the molecule `CSc1ccc(CCNC(=O)CCc2nnc3ccc(NCCCN4CCCC4=O)nn23)cc1`, the EC50 was > 35 µM (inactive). Take `CC(C)(C)C1=CC=C(C(C)(C)C)C(=O)C1=O`: the EC50 is > 35 µM (inactive). As to `CCCc1ccc(OCc2ccc(C(=O)N/N=C/c3cccc([N+](=O)[O-])c3)o2)c(OC)c1`, the concentration giving a half-maximal response (EC50) was 7.22 µM. With `COc1cccc(C(=O)C(C#N)=C(SC)SC)c1`, the EC50 is > 35 µM (inactive).

On to `Cc1cccc(N(C)C(=O)CCS(=O)(=O)c2cccc3nonc23)c1`, for which the EC50 was > 35 µM (inactive). For `O=C(N=Nc1c(O)[nH]c2ccc([N+](=O)[O-])cc12)c1cc(-c2ccccc2Cl)nc2ccccc12`, the EC50 is > 35 µM (inactive). The figure for `Cc1ccc(-c2csc(N=C(N)N)n2)cc1` is > 35 µM (inactive); for `NCCCC[C@H](N[C@@H](CCc1ccccc1)C(=O)O)C(=O)N1CCC[C@H]1C(=O)O` it is > 35 µM (inactive); for `CSC[C@@H]1NC(=S)N(c2ccc(C)cc2)C1=O` it is > 35 µM (inactive).

`Cc1c(C)c(C)c(C(=O)CCc2cccc(NC(=O)CCC(=O)O)c2)c(C)c1C`: the EC50 was > 35 µM (inactive).

`C[N+](C)(C)CCNC(=O)c1cc[n+](Cc2ccccc2)c(/C=N/O)c1`: the EC50 was > 35 µM (inactive). On to `Cc1ccc(CCC(=O)Nc2ccc(Br)cc2)o1`, for which the EC50 is > 35 µM (inactive). Take `CN(C)CCN(C(=O)/C=C/c1cccs1)c1nc2c(F)cc(F)cc2s1`: the EC50 was 36.1 µM.

Take `Cc1cccc(C)c1NC(=O)C(Cl)C(=O)c1ccccc1` (stereo unspecified): the EC50 is > 35 µM (inactive). With `O=C(Cc1ccccc1)N1CCc2[nH]nc(-c3ccccc3)c2C1`, the EC50 was > 35 µM (inactive).

As to `Cn1c(O)c(C=NCCN2CCN(C(=O)Nc3ccccc3)CC2)c(=O)n(C)c1=O`, the EC50 was > 35 µM (inactive). As to `Cc1cc(Oc2ccc(=O)[nH]n2)nc(Cl)n1`, the EC50 was > 35 µM (inactive).

Turning to `O=C(c1c[nH]c2ccccc12)C(Cl)c1ccccc1` (stereo unspecified), the EC50 is > 35 µM (inactive).

With `O=C(NC1CCCC1)c1cccc2c1C(=O)c1ccc(/C=C/c3ccccc3)cc1S2(=O)=O`, the EC50 was 10.6 µM. Regarding `Cc1ccc(/C=C/C(=O)Nc2sc(C)c(C)c2C(=O)OC(C)C)o1`, the EC50 was > 35 µM (inactive).

Take `CCOC(=O)c1[nH]c2ccccc2c1NC(=S)Nc1cc(C)ccc1C`: the EC50 was > 35 µM (inactive). With `CC(NC(=O)c1cccc(OC2CCN(C3CCN(C)CC3)CC2)c1)c1ccccc1` (stereo unspecified), the EC50 is > 35 µM (inactive). On to `COc1cccc(-n2nnnc2S(C)(=O)=O)c1`, for which the EC50 is > 35 µM (inactive). `CN(Cc1ccc(F)cc1)C(=O)CNC(=O)C1CCCCC1`: the EC50 was > 35 µM (inactive). Consider `Nc1nc(CSc2nc3ccccc3[nH]2)nc(N2CCOCC2)n1`, for which the EC50 was > 35 µM (inactive). The value for `COc1ccc(C(=O)COC(=O)CNS(=O)(=O)c2ccc(C)cc2)cc1` was > 35 µM (inactive); that for `O=C(O)CCC(=NNC(=O)c1cccc(S(=O)(=O)N2CCCCC2)c1)c1ccccc1` was > 35 µM (inactive). As to `Cc1ccc(NC(=O)Cn2c(=O)cnc3ccccc32)cc1S(=O)(=O)N1CCOCC1`, the EC50 is > 35 µM (inactive). The value for `CCOC(=O)COc1ccccc1/C=C\[N+](=O)[O-]` was 5.85 µM.

On to `CC(=O)Nc1ncnc2c1c(-c1ccc(Cl)cc1)nn2C(C)(C)C`, for which the EC50 is > 35 µM (inactive). `CN1CCN(CCNC(=O)Nc2ccc(Cl)cc2)CC1`: the EC50 is > 35 µM (inactive).

With `Cc1ccc(S(=O)(=O)NCCN2CCOCC2)cc1`, the EC50 is > 35 µM (inactive). The value for `CN1CCc2cccc(Cl)c2CC1` was > 35 µM (inactive). `COc1ccc(S(=O)(=O)N2CCCCC2C)cc1` (stereo unspecified): the EC50 is > 35 µM (inactive). `COc1ccccc1N1CCN(C(=O)c2ccc(C(C)(C)C)cc2)CC1`: the EC50 is > 35 µM (inactive). The figure for `CCc1nn(-c2cc(Oc3cccc4ccccc34)nc(-c3ccccc3)n2)c(N)c1C#N` is > 35 µM (inactive); for `O=C(CS(=O)c1ccc(C(F)(F)F)cc1[N+](=O)[O-])Oc1ccccc1` (stereo unspecified) it is > 35 µM (inactive). Turning to `CC1(C)CC(=O)c2cc3c(N)c(C(=O)NCc4ccccc4)sc3nc2C1`, the EC50 is > 35 µM (inactive). In the case of `COc1ccc(C(=O)N/C(=C/c2cccs2)C(=O)NN)cc1OC`, the EC50 was > 35 µM (inactive). As to `Cc1c(C(=O)c2ccccc2C(=O)O)sc2ccccc12`, the EC50 was > 35 µM (inactive). On to `CCCCn1c(N2CCCC2)nc2c1c(=O)[nH]c(=O)n2C`, for which the EC50 was > 35 µM (inactive). `CCC(Sc1nc2cc3c(cc2c(=O)n1Cc1ccco1)OCO3)C(=O)Nc1cccc(OC)c1` (stereo unspecified): the EC50 is > 35 µM (inactive). The figure for `O=C(O)CCN1C(=O)/C(=C\c2ccncc2)SC1=S` is > 35 µM (inactive).

In the case of `CC1(C)C[C@H](O)[C@]2(CO)[C@H](O)C[C@]3(C)C(=CCC4[C@@]5(C)CC[C@H](O)C(C)(C)C5CC[C@]43C)[C@@H]2C1` (stereo partly specified), the EC50 was > 35 µM (inactive). Turning to `CCc1ccc(N(CC)C(=O)c2cn(C)c(=O)c3ccccc23)cc1`, the EC50 is > 35 µM (inactive). On to `N#Cc1c(C(F)(F)F)cc(-c2ccccc2)nc1SCC(=O)Nc1sc2c(c1C#N)CCC2`, for which the EC50 is > 35 µM (inactive).

As for `Cc1occc1-c1nnc(SCC(=O)NCCc2ccccc2)n1Cc1ccccc1`, the EC50 was > 35 µM (inactive). With `O=C(N/N=C\c1cccc(Cl)c1)c1ccc(Cn2cccn2)o1`, the EC50 was > 35 µM (inactive). With `Cc1ccc(OCC(O)CN2CCN(CCO)CC2)c(C)c1` (stereo unspecified), the EC50 is > 35 µM (inactive). For the molecule `CN(c1ccccc1)c1ccc(/C=C/[N+](=O)[O-])cc1`, the 50% effective concentration (EC50) was 12.6 µM. As to `COc1ccc(NC(=O)c2cccc3c2C(=O)c2ccc(-c4ccc(F)cc4OCc4ccccc4)cc2S3(=O)=O)cc1`, the EC50 was > 35 µM (inactive). `COc1ccc(S(=O)(=O)NC2CCCC2)cc1C(N)=O`: the EC50 was > 35 µM (inactive). For the molecule `CCCCCCCC/C=C\CCCCCCCC(=O)NCCc1ccc(O)c(O)c1`, the EC50 is 8.06 µM. The value for `O=C(Nc1ccc([N+](=O)[O-])cc1)C(Cc1ccccc1)N1C(=O)c2cccc3cccc(c23)C1=O` (stereo unspecified) was > 35 µM (inactive). On to `O=[N+]([O-])c1ccc(CN2CCOCCOCCOCC2)cc1`, for which the EC50 is > 35 µM (inactive).

On to `O=C(CCNc1n[nH]c(=O)[nH]c1=O)N/N=C/c1ccc(C(F)(F)F)cc1`, for which the EC50 is > 35 µM (inactive). Regarding `Cc1ccc(-n2nc3c(=O)n(CC(=O)NCCC4=CCCCC4)nc(C)c3c2C)cc1`, the EC50 was > 35 µM (inactive). Consider `O=C(N/N=C/c1ccc(N2CCCCC2)o1)c1ccccc1[N+](=O)[O-]`, for which the EC50 is > 35 µM (inactive). `CCCn1c(SCC(=O)NC)nc2sc3c(c2c1=O)CCC3`: the EC50 was > 35 µM (inactive). The figure for `O=C(Nc1ccccc1)N(Cc1ccc(Cl)cc1)CC(O)C(F)(F)F` (stereo unspecified) is > 35 µM (inactive); for `COC(=O)c1ccc(CNC(=O)C2CCC(=O)N(CCc3ccccc3)C2)cc1` (stereo unspecified) it is > 35 µM (inactive).

On to `COC(=O)c1ccc2c(c1)C(C)(C)C(/C=C/c1ccc(O)cc1)=[N+]2C`, for which the EC50 was 15.2 µM. The figure for `O=C(NCc1cccs1)C(=O)NCC1OCCCN1S(=O)(=O)c1ccccc1` (stereo unspecified) is > 35 µM (inactive). In the case of `Cc1cc(Br)c(OCc2ccc(C(=O)N/N=C/c3ccc[nH]3)cc2)c(Br)c1`, the 50% effective concentration (EC50) was 33.8 µM. The value for `Cc1cc(C2C(C#N)=C(N)SC(N)=C2C#N)c(C)s1` was > 35 µM (inactive); that for `O=C(/C=C/c1ccccc1)Nc1cccnc1` was > 35 µM (inactive). For `CCOc1ccc(OCC(=O)N(CCC2=CCCCC2)c2c(N)n(Cc3ccccc3)c(=O)[nH]c2=O)cc1`, the EC50 was 19.1 µM. In the case of `CCCNC(=O)C(Cc1ccccc1F)NC(=O)c1ccccn1` (stereo unspecified), the EC50 is > 35 µM (inactive). Regarding `COc1ccc(CC(=O)Nc2ccc3c(c2)CCC3)cc1S(=O)(=O)N1CCOCC1`, the EC50 is > 35 µM (inactive). In the case of `CCCCOC(=O)c1ccc(S(N)(=O)=O)o1`, the EC50 was > 35 µM (inactive). On to `COc1ccc(S(=O)(=O)N2CC(O)CC2C(=O)OCC(=O)Nc2ccc(Cl)cn2)cc1` (stereo unspecified), for which the EC50 was > 35 µM (inactive).

As to `CCCCCCCCC(=O)NNC(=O)c1c(O)c2ccccc2n(CCC)c1=O`, the EC50 is > 35 µM (inactive). The figure for `Cc1ccccc1S(=O)(=O)N(CC(O)CN1CCCCC1)c1ccccc1` (stereo unspecified) is > 35 µM (inactive); for `CCCNC(=O)N1[C@H]2CC[C@@H]1C(C(=O)OC)=C(c1c(C)noc1C)C2` it is > 35 µM (inactive); for `COCC(=O)NC(C)c1nc2ccccc2[nH]1` (stereo unspecified) it is > 35 µM (inactive). Take `CS(=O)(=O)Nc1ccc(C2=NN(C(=O)c3cccc(F)c3)C(c3cccs3)C2)cc1` (stereo unspecified): the EC50 was > 35 µM (inactive). Regarding `O=C(CS(=O)(=O)c1ccccc1)N(CCCN1CCOCC1)c1nc2c(F)cccc2s1`, the EC50 is > 35 µM (inactive). Take `Cc1ccc(NC(=O)c2cc(N3C(=O)C=CC3=O)ccc2N2CCOCC2)cc1Cl`: the EC50 is > 35 µM (inactive).
